{"source": "patent US8637511B2", "about": "“Aminopyrimidines useful as kinase inhibitors” (Vertex Pharmaceuticals Incorporated, priority 2005, dated 2014)", "format_in_all_cases": "biochemical", "key": {"Aurora-2 (Aurora A)": {"biological_target": "T1, Aurora-2 (Aurora A) (Homo sapiens, UniProt O14965)", "T1 sequence (O14965 1-403)": "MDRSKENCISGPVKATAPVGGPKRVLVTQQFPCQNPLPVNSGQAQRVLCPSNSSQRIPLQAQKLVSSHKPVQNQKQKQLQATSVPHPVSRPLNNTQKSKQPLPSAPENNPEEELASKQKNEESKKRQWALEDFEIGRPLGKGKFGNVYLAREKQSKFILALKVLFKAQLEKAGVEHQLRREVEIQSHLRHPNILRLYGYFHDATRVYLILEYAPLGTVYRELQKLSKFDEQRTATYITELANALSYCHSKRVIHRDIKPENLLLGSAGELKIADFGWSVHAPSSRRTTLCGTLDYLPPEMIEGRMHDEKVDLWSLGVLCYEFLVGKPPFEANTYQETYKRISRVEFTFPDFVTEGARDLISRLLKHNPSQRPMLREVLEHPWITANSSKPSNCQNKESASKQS", "assay": "Aurora-2 (Aurora A) inhibition assay, coupled enzyme", "method_in_brief": "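These rates came from NADH consumption coupled through pyruvate kinase and lactate dehydrogenase (100 mM Hepes pH 7.5, 10 mM MgCl2, 300 μM NADH). Aurora-2 was present at 40 nM, and the reaction ran at 30 °C after a 10 min preincubation.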"}, "Aurora-1 (Aurora B)": {"biological_target": "Aurora-1 (Aurora B) (Homo sapiens, UniProt Q96GD4)", "sequence (Q96GD4 whole entry)": "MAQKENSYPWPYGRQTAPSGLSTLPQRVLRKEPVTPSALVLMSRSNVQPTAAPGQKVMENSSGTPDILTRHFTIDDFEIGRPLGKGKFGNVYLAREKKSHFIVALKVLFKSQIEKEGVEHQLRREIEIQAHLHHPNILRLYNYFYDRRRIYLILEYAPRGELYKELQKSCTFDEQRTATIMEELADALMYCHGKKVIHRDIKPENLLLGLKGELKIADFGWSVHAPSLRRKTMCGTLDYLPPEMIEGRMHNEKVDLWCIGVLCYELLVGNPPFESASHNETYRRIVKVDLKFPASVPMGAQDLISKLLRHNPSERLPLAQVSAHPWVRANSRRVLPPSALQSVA", "assay": "Aurora-1 (Aurora B) inhibition assay (radiometric)", "conditions": "read-out: Aurora B kinase Ki value", "method_in_brief": "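Ki values come from non-linear regression of background-corrected initial-rate data. The enzyme was preincubated 10 min at 25° C with compound, then reacted 3 h with 800 μM (final) [γ-^33P]-ATP in HEPES pH 7.5/MgCl2/BSA/glycerol buffer. The reaction was stopped with phosphoric acid and substrate-bound ^33P counted on phosphocellulose.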"}, "human Itk kinase": {"biological_target": "T2, human Itk kinase (Homo sapiens, UniProt Q08881)", "T2 sequence (Q08881 1-620)": "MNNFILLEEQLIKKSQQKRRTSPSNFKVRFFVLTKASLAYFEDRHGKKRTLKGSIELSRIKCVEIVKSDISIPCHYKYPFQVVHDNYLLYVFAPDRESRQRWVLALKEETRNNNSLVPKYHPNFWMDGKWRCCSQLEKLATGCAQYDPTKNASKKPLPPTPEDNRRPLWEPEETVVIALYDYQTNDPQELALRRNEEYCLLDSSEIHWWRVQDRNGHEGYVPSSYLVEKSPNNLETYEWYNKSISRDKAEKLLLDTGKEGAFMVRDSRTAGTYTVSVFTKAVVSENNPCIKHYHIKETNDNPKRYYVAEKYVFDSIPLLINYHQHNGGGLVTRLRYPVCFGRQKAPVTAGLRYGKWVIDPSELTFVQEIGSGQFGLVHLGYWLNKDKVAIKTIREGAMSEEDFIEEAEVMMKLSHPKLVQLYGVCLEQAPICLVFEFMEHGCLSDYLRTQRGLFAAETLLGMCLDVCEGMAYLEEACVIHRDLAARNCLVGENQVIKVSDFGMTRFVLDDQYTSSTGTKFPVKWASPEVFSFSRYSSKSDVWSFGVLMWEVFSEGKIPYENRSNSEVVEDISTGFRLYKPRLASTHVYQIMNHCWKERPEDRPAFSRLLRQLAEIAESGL", "assay": "Itk inhibition assay: radioactivity-based assay", "conditions": "Ki(app)", "description": "The compounds of the present invention were evaluated as inhibitors of human Itk kinase using a radioactivity-based assay. These compounds can also be evaluated using a spectrophotometric or alphascreen assay.\nAssays were carried out in a mixture of 20 mM MOPS (pH 7.0), 10 mM MgCl2, 0.1% BSA and 1 mM DTT. Final substrate concentrations in the assay were 7.5 μM [γ-^33P]ATP (400 μCi ^33P ATP/μmol ATP, Amersham Pharmacia Biotech/Sigma Chemicals) and 3 μM peptide (SAM68 protein Δ332-443). Assays were carried out at 25° C. in the presence of 50 nM Itk. An assay stock buffer solution was prepared containing all of the reagents listed above, with the exception of ATP and the test compound of interest. 50 μL of the stock solution was placed in a 96 well plate followed by addition of 2 μL of DMSO stock containing serial dilutions of the test compound (typically starting from a final concentration of 50 μM with 2-fold serial dilutions) in duplicate (final DMSO concentration 2%). The plate was pre-incubated for 10 minutes at 25° C. and the reaction initiated by addition of 50 μL [γ-^33P]ATP (final concentration 7.5 μM).\nThe reaction was stopped after 10 minutes by the addition of 100 μL 0.2M phosphoric acid+0.01% TWEEN 20. A multiscreen phosphocellulose filter 96-well plate (Millipore, Cat no. MAPHNOB50) was pretreated with 100 μL 0.2M phosphoric acid+0.01% TWEEN 20 prior to the addition of 170 μL of the stopped assay mixture. The plate was washed with 4×200 μL 0.2M phosphoric acid+0.01% TWEEN 20. After drying, 30 μL Optiphase ‘SuperMix’ liquid scintillation cocktail (Perkin Elmer) was added to the well prior to scintillation counting (1450 Microbeta Liquid Scintillation Counter, Wallac).\nKi(app) data were calculated from non-linear regression analysis of the initial rate data using the Prism software package (GraphPad Prism version 3.0cx for Macintosh, GraphPad Software, San Diego Calif., USA)."}, "[1]": {"conditions": "read-out: Aurora A kinase Ki value"}}, "note": "“And” between values parts separate entries of the source, which are not always exact repeats. Identical values can stand only once. Like-named read-outs stand apart in the source and are kept apart here.", "data": [{"smiles": "Cc1cc(Nc2cc(N3CC(F)(C4CC4)C3)nc(Sc3ccc(-c4ncc(C)o4)cc3)n2)[nH]n1", "note": "[Compound 175]", "values": [{"measurement": "Ki", "setting": "Aurora-2 (Aurora A); [1]", "value": "5 to 200", "unit": "nM"}, {"measurement": "Ki", "setting": "Aurora-1 (Aurora B)", "value": "50 to 2000", "unit": "nM"}]}, {"smiles": "Cc1ccc(S(=O)(=O)Nc2ccc(Sc3nc(Nc4cc(C)[nH]n4)cc(N4CCC4)n3)cc2)cc1", "note": "[Compound 27]", "values": [{"measurement": "Ki", "setting": "Aurora-2 (Aurora A)", "value": "1 to 5", "unit": "nM"}, {"measurement": "Ki", "setting": "Aurora-1 (Aurora B)", "value": "50 to 2000", "unit": "nM"}, {"measurement": "Ki", "setting": "human Itk kinase", "value": "1000 to 2000", "unit": "nM"}]}, {"smiles": "Cc1cc(Nc2cc(N3CC(F)(C4CC4)C3)nc(Sc3ccc(N)cc3)n2)[nH]n1", "note": "[Compound 209]", "values": [{"measurement": "Ki", "setting": "Aurora-2 (Aurora A); [1]", "value": "5 to 200", "unit": "nM"}, {"measurement": "Ki", "setting": "Aurora-1 (Aurora B)", "value": "50 to 2000", "unit": "nM"}]}, {"smiles": "Cc1cc(Nc2cc(N3CC(N4CC[C@H](F)C4)C3)nc(Sc3ccc4ncccc4c3)n2)n[nH]1", "note": "[Compound 160]", "values": [{"measurement": "Ki", "setting": "Aurora-2 (Aurora A)", "value": "≤ 1", "unit": "nM"}, {"measurement": "Ki", "setting": "Aurora-1 (Aurora B)", "value": "≤ 10", "unit": "nM"}]}, {"smiles": "Cc1ccc(C(=O)Nc2ccc(Sc3nc(Nc4cc(C)n[nH]4)cc(N4CCC4)n3)cc2)cn1", "note": "[Compound 145]", "values": [{"measurement": "Ki", "setting": "Aurora-2 (Aurora A); [1]", "value": "5 to 200", "unit": "nM"}, {"measurement": "Ki", "setting": "Aurora-1 (Aurora B)", "value": "50 to 2000", "unit": "nM"}]}, {"smiles": "Cc1cc(Nc2cc(N3CCC3)nc(Sc3ccc(NC(=O)C(C)(C)C)cc3)n2)[nH]n1", "note": "[Compound 114]", "values": [{"measurement": "Ki", "setting": "Aurora-2 (Aurora A); [1]", "value": "1 to 5", "unit": "nM"}, {"measurement": "Ki", "setting": "Aurora-1 (Aurora B)", "value": "10 to 50", "unit": "nM"}]}, {"smiles": "Cc1cc(Nc2cc(N3CCC3)nc(Sc3ccc(C(=O)N4CCCC4)cc3)n2)n[nH]1", "note": "[Compound 22]", "values": [{"measurement": "Ki", "setting": "Aurora-2 (Aurora A)", "value": "5 to 200", "unit": "nM"}, {"measurement": "Ki", "setting": "Aurora-1 (Aurora B)", "value": "50 to 2000", "unit": "nM"}]}, {"smiles": "COc1ccc(C(=O)Nc2ccc(Sc3nc(Nc4cc(C)n[nH]4)cc(N4CCC4)n3)cc2)cc1", "note": "[Compound 117]", "values": [{"measurement": "Ki", "setting": "Aurora-2 (Aurora A); [1]", "value": "1 to 5", "unit": "nM"}, {"measurement": "Ki", "setting": "Aurora-1 (Aurora B)", "value": "10 to 50", "unit": "nM"}]}, {"smiles": "Cc1cc(Nc2cc(N3CCC3)nc(Sc3ccc(NC(=O)C(C)CC(F)(F)F)cc3)n2)[nH]n1", "note": "(centres unmarked) [Compound 127]", "values": [{"measurement": "Ki", "setting": "Aurora-2 (Aurora A); [1]", "value": "1 to 5", "unit": "nM"}, {"measurement": "Ki", "setting": "Aurora-1 (Aurora B)", "value": "10 to 50 nM and < 25 nM"}]}, {"smiles": "Cc1cc(Nc2cc(N3CCC3)nc(Sc3ccc(NC(=O)CCC(F)(F)F)cc3)n2)[nH]n1", "note": "[Compound 121]", "values": [{"measurement": "Ki", "setting": "Aurora-2 (Aurora A); [1]", "value": "1 to 5", "unit": "nM"}, {"measurement": "Ki", "setting": "Aurora-1 (Aurora B)", "value": "10 to 50 nM and < 25 nM"}]}, {"smiles": "Cc1cc(Nc2cc(N3CCC3)nc(Sc3ccc(C(=O)NC4CCCC4)cc3)n2)n[nH]1", "note": "[Compound 23]", "values": [{"measurement": "Ki", "setting": "Aurora-2 (Aurora A); [1]", "value": "5 to 200", "unit": "nM"}, {"measurement": "Ki", "setting": "Aurora-1 (Aurora B)", "value": "50 to 2000", "unit": "nM"}]}, {"smiles": "Cc1ccc2cc(Sc3nc(Nc4cc(C)[nH]n4)cc(N4CC(N5CCCC5)C4)n3)ccc2n1", "note": "[Compound 182]", "values": [{"measurement": "Ki", "setting": "Aurora-2 (Aurora A); [1]", "value": "1 to 5", "unit": "nM"}, {"measurement": "Ki", "setting": "Aurora-1 (Aurora B)", "value": "10 to 50 nM and < 25 nM"}]}, {"smiles": "Cc1cc(Nc2cc(N3CCC3)nc(Sc3ccc(NC(=O)NCc4ccccc4)cc3)n2)n[nH]1", "note": "[Compound 74]", "values": [{"measurement": "Ki", "setting": "Aurora-2 (Aurora A); [1]", "value": "5 to 200", "unit": "nM"}, {"measurement": "Ki", "setting": "Aurora-1 (Aurora B)", "value": "50 to 2000", "unit": "nM"}]}, {"smiles": "Cc1cc(Nc2cc(N3CC(O)(C4CC4)C3)nc(Sc3ccc4ccccc4c3)n2)n[nH]1", "note": "[Compound 131]", "values": [{"measurement": "Ki", "setting": "Aurora-2 (Aurora A); [1]", "value": "≤ 1", "unit": "nM"}, {"measurement": "Ki", "setting": "Aurora-1 (Aurora B)", "value": "50 to 2000", "unit": "nM"}]}, {"smiles": "Cc1cc(Nc2cc(N3CCC3)nc(Sc3ccc(NC(=O)C(F)(F)F)cc3)n2)[nH]n1", "note": "[Compound 158]", "values": [{"measurement": "Ki", "setting": "Aurora-2 (Aurora A); [1]", "value": "1 to 5", "unit": "nM"}, {"measurement": "Ki", "setting": "Aurora-1 (Aurora B)", "value": "≤ 10", "unit": "nM"}]}, {"smiles": "Cc1cc(Nc2cc(N3CCC3)nc(Sc3ccc(NC(=O)c4cc(C)nc(Cl)c4)cc3)n2)[nH]n1", "note": "[Compound 149]", "values": [{"measurement": "Ki", "setting": "Aurora-2 (Aurora A); [1]", "value": "1 to 5", "unit": "nM"}, {"measurement": "Ki", "setting": "Aurora-1 (Aurora B)", "value": "10 to 50", "unit": "nM"}]}, {"smiles": "CCC(=O)Nc1ccc(Sc2nc(Nc3cc(C)n[nH]3)cc(N3CC(C)(OC(C)C)C3)n2)cc1", "note": "[Compound 95]", "values": [{"measurement": "Ki", "setting": "Aurora-2 (Aurora A); [1]", "value": "1 to 5", "unit": "nM"}, {"measurement": "Ki", "setting": "Aurora-1 (Aurora B)", "value": "10 to 50 nM and < 25 nM"}]}, {"smiles": "Cc1cc(Nc2cc(N3CCC3)nc(Sc3ccc(C(=O)NCc4ccccc4Cl)cc3)n2)n[nH]1", "note": "[Compound 24]", "values": [{"measurement": "Ki", "setting": "Aurora-2 (Aurora A)", "value": "5 to 200", "unit": "nM"}, {"measurement": "Ki", "setting": "Aurora-1 (Aurora B)", "value": "50 to 2000", "unit": "nM"}]}, {"smiles": "CCC(=O)Nc1ccc(Sc2nc(Nc3cc(C)n[nH]3)cc(N3CC(O)(C(F)(F)F)C3)n2)cc1", "note": "[Compound 94]", "values": [{"measurement": "Ki", "setting": "Aurora-2 (Aurora A); [1]", "value": "1 to 5", "unit": "nM"}, {"measurement": "Ki", "setting": "Aurora-1 (Aurora B)", "value": "10 to 50 nM and < 25 nM"}]}, {"smiles": "Cc1cc(Nc2cc(N3CCC3)nc(Oc3ccc(NC(=O)c4ccccc4C(F)(F)F)cc3)n2)[nH]n1", "note": "[Compound 134]", "values": [{"measurement": "Ki", "setting": "Aurora-2 (Aurora A); [1]", "value": "1 to 5", "unit": "nM"}, {"measurement": "Ki", "setting": "Aurora-1 (Aurora B)", "value": "10 to 50 nM and < 25 nM"}]}]}
